Laboratory results taken from publication PMC10272112 (Nature Communications, 2023).
Values joined by “and” are separate entries in the source; they are usually repeats but may differ in a detail not shown here. Equal entries are not always repeated.

Experiments:
[1] = target: T1, HDAC3/NcoR2 complex (Homo sapiens, UniProt O15379); assay: HDAC-Glo assay; type: biochemical; details: for EC50: read-out: log EC50 from dose-dependent HDAC inhibition curves (converted); for HDCA3 relative activity: sheet S2b
T1 construct: purchased BPS Bioscience 50003
Procedure: (§1) To validate the inhibition of HDACs by LA and LM and elaborate on the structure-activity relationship (SAR) of enantiomers as well as oxidized versus reduced forms of the molecules, we performed enzyme activity assays for recombinant HDAC1,2,3,6,8 as well as FRET-based binding assay for recombinant HDAC10.
(§2) The experiments were performed according to ref. [48]. […] Drug dosing was performed with a D300e Digital Dispenser (Tecan). HDACs (7 ng/mL for HDAC1, 25 ng/mL for HDAC2, 200 ng/mL for HDAC3/Ncor2 complex, 100 ng/mL for HDAC6, 200 ng/mL for HDAC8) and inhibitors were incubated together at room temperature (RT) for 30 min. After the addition of the HDAC-Glo™ I/II reagent, plates were shaken (800 rpm orbital shaker, 30 s), centrifuged (300 g, 1 min), and incubated at RT for 30 min. Luminescence was detected with a CLARIOstar (BMG Labtech) plate reader.

[2] = tested on: DDX3X AcK118; assay: DDX3X acetylation detection by western blot, CBP-HA transfected HEK293T; type: cell-based
Procedure: 0.2 × 10^6 HEK293T (ATCC: CRL-3216) cells were transfected with pcDNA 3.1-HA CBP plasmids (1 μg/well for the 6-well plate) by FuGENE. After 2 days, cells were treated with ACY-738, lipoic acid, and lipoamide for 7 h, then were washed by ice-cold PBS and lysed in Triton lysis buffer (50 mM Tris, pH 8.0, 150 mM NaCl, 1 mM EDTA, 0.1% TritonX-100 and complete EDTA-free protease inhibitors (Roche)) for analysis. To detect protein acetylation, 0.2 μM Trichostatin A and 5 mM nicotinamide were added to PBS for washing, and 10 μM trichostatin A, 10 mM nicotinamide, and 50 mM sodium butyrate were added to Triton lysis buffer.

[3] = target: HDAC1 (Homo sapiens, UniProt Q13547); assay: HDAC-Glo assay; type: biochemical; design: purchased BPS Bioscience 50051; details: for EC50: read-out: log EC50 from dose-dependent HDAC inhibition curves (converted)
Procedure: as §1, §2

[4] = 0.5 M TCEP, log10 M -3.30103, 3 technical replicates
[5] = 0.5 M TCEP, log10 M -3.82945, 3 technical replicates
[6] = 0.5 M TCEP, log10 M -4.35788, 3 technical replicates
[7] = 0.5 M TCEP, log10 M -4.88629, 3 technical replicates
[8] = 0.5 M TCEP, log10 M -5.41477, 3 technical replicates
[9] = 0.5 M TCEP, log10 M -5.94309, 3 technical replicates
[10] = 0.5 M TCEP, log10 M -6.47756, 3 technical replicates
[11] = 0.5 M TCEP, log10 M -6.87615, 3 technical replicates
[12] = no TCEP, log10 M -3.30103, 3 technical replicates
[13] = no TCEP, log10 M -3.82945, 3 technical replicates
[14] = no TCEP, log10 M -4.35788, 3 technical replicates
[15] = no TCEP, log10 M -4.88629, 3 technical replicates
[16] = no TCEP, log10 M -5.41477, 3 technical replicates
[17] = no TCEP, log10 M -5.94309, 3 technical replicates
[18] = no TCEP, log10 M -6.47756, 3 technical replicates
[19] = no TCEP, log10 M -6.87615, 3 technical replicates

Chain of HDAC1 (Q13547 whole entry): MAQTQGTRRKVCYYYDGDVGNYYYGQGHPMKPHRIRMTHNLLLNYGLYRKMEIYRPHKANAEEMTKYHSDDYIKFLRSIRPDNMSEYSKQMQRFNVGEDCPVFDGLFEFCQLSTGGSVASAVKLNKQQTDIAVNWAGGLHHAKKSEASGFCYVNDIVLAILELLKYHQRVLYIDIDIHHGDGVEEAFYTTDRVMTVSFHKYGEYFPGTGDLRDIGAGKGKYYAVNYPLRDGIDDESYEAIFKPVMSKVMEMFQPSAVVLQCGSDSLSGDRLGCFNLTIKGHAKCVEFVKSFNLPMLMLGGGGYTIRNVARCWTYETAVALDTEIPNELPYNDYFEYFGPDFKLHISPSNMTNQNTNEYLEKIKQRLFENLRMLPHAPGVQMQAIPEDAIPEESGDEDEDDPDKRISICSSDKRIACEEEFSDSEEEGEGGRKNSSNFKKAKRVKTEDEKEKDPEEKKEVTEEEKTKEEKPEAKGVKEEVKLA
T1 sequence (O15379 whole entry): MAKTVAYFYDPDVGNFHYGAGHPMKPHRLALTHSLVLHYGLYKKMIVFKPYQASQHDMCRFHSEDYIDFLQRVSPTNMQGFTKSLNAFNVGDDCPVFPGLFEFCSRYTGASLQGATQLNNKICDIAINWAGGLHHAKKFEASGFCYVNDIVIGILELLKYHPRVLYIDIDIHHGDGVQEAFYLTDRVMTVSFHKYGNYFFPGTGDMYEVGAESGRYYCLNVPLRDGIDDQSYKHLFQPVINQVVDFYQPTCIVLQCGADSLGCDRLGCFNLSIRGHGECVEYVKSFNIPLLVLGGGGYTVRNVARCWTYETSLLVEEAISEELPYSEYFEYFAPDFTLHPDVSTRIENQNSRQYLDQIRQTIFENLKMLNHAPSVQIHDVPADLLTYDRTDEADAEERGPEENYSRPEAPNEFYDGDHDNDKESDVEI
T1 sequence (Q9Y618 395-489 partner limits assumed): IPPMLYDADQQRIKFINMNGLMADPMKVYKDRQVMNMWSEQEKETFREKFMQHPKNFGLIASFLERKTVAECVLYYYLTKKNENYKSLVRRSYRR

Structure (SMILES): O=C(O)CCCCC1CCSS1 (racemic) [(R/S)-LA, (R/S)-lipoic acid]
- HDAC enzymatic activity (normalized luminescence) [1, 4]: 7.256 and 7.282 and 7.339
- HDAC enzymatic activity (normalized luminescence) [1, 5]: 17.0785 and 16.9479 and 17.22
- HDAC enzymatic activity (normalized luminescence) [1, 6]: 49.3596 and 49.0858 and 50.0362
- HDAC enzymatic activity (normalized luminescence) [1, 7]: 95.5948 and 97.1564 and 98.2162
- HDAC enzymatic activity (normalized luminescence) [1, 8]: 101.96 and 103.73 and 105.005
- HDAC enzymatic activity (normalized luminescence) [1, 9]: 91.2378 and 92.4271 and 93.0815
- HDAC enzymatic activity (normalized luminescence) [1, 10]: 89.2879 and 93.1305 and 94.7241
- HDAC enzymatic activity (normalized luminescence) [1, 11]: 90.3991 and 92.4306 and 92.5457
- HDAC enzymatic activity (normalized luminescence) [1, 12]: 64.3889 and 65.753 and 66.6157
- HDAC enzymatic activity (normalized luminescence) [1, 13]: 67.3361 and 68.514 and 68.6262
- HDAC enzymatic activity (normalized luminescence) [1, 14]: 79.5043 and 81.2871 and 81.6059
- HDAC enzymatic activity (normalized luminescence) [1, 15]: 87.8136 and 89.4197 and 90.6707
- HDAC enzymatic activity (normalized luminescence) [1, 16]: 88.1589 and 90.4647 and 92.122
- HDAC enzymatic activity (normalized luminescence) [1, 17]: 88.1501 and 88.386 and 90.7058
- HDAC enzymatic activity (normalized luminescence) [1, 18]: 88.6188 and 88.5508 and 90.3108
- HDAC enzymatic activity (normalized luminescence) [1, 19]: 97.6646 and 98.0479 and 97.5948
- EC50 [1]: 41.7 µM
- HDCA3 relative activity ([1]; log conc -3.30103): 4.168 and 4.13 and 4.176
- HDCA3 relative activity ([1]; log conc -3.82945): 8.909 and 8.94 and 8.919
- HDCA3 relative activity ([1]; log conc -4.35788): 25.3559 and 24.0859 and 24.4605
- HDCA3 relative activity ([1]; log conc -4.88629): 55.6369 and 56.3521 and 62.4157
- HDCA3 relative activity ([1]; log conc -5.41477): 100.947 and 102.17 and 103.057
- HDCA3 relative activity ([1]; log conc -5.94309): 105.476 and 106.045 and 106.401
- HDCA3 relative activity ([1]; log conc -6.47756): 89.5862 and 90.873 and 93.4553
- HDCA3 relative activity ([1]; log conc -6.87615): 104.127 and 108.406 and 102.786
- DDX3X AcK118 acetylation level relative to control ([2]; 1 mM): 2.4 fold
- DDX3X AcK118 acetylation level relative to control ([2]; .5 (mM)): 1.8 fold
- HDAC enzymatic activity (normalized luminescence) [3, 4]: 2.253 and 2.122 and 2.222
- raw luminescence signal, HDAC1 inhibition [3, 4]: 9033 and 8544 and 8916
- HDAC enzymatic activity (normalized luminescence) [3, 5]: 6.603 and 6.6 and 6.7561
- raw luminescence signal, HDAC1 inhibition [3, 5]: 25221 and 25211 and 25792
- HDAC enzymatic activity (normalized luminescence) [3, 6]: 20.3513 and 20.4988 and 20.2352
- raw luminescence signal, HDAC1 inhibition [3, 6]: 76389 and 76938 and 75957
- HDAC enzymatic activity (normalized luminescence) [3, 7]: 44.8545 and 45.009 and 46.4019
- raw luminescence signal, HDAC1 inhibition [3, 7]: 167582 and 168157 and 173341
- HDAC enzymatic activity (normalized luminescence) [3, 8]: 75.7737 and 78.1543 and 78.9575
- raw luminescence signal, HDAC1 inhibition [3, 8]: 282653 and 291513 and 294502
- HDAC enzymatic activity (normalized luminescence) [3, 9]: 89.586 and 92.205 and 92.7553
- raw luminescence signal, HDAC1 inhibition [3, 9]: 334058 and 343805 and 345853
- HDAC enzymatic activity (normalized luminescence) [3, 10]: 95.6344 and 96.1277 and 99.0353
- raw luminescence signal, HDAC1 inhibition [3, 10]: 356568 and 358404 and 369225
- HDAC enzymatic activity (normalized luminescence) [3, 11]: 97.1294 and 100.284 and 101.314
- raw luminescence signal, HDAC1 inhibition [3, 11]: 362132 and 373872 and 377707
- HDAC enzymatic activity (normalized luminescence) [3, 12]: 34.5758 and 34.0329 and 33.4507
- HDAC enzymatic activity (normalized luminescence) [3, 13]: 69.9436 and 70.5688 and 71.7678
- HDAC enzymatic activity (normalized luminescence) [3, 14]: 91.6791 and 90.2694 and 91.9437
- HDAC enzymatic activity (normalized luminescence) [3, 15]: 97.2441 and 96.7873 and 98.245
- HDAC enzymatic activity (normalized luminescence) [3, 16]: 102.844 and 103.267 and 105.666
- HDAC enzymatic activity (normalized luminescence) [3, 17]: 103.58 and 104.044 and 104.328
- HDAC enzymatic activity (normalized luminescence) [3, 18]: 103.305 and 103.257 and 103.904
- HDAC enzymatic activity (normalized luminescence) [3, 19]: 102.627 and 100.722 and 100.875
- EC50 [3]: 11.4 µM
- HDAC1 relative activity ([3]; sheet S2b, log conc -3.30103): 1.283 and 1.298 and 1.278
- HDAC1 relative activity ([3]; sheet S2b, log conc -3.82945): 3.514 and 3.391 and 3.355
- HDAC1 relative activity ([3]; sheet S2b, log conc -4.35788): 11.0684 and 11.0093 and 10.6578
- HDAC1 relative activity ([3]; sheet S2b, log conc -4.88629): 24.6308 and 24.7045 and 25.3305
- HDAC1 relative activity ([3]; sheet S2b, log conc -5.41477): 53.4112 and 53.3483 and 54.8189
- HDAC1 relative activity ([3]; sheet S2b, log conc -5.94309): 78.0321 and 77.9262 and 78.089
- HDAC1 relative activity ([3]; sheet S2b, log conc -6.47756): 94.813 and 93.3015 and 93.5028
- HDAC1 relative activity ([3]; sheet S2b, log conc -6.87615): 93.4945 and 92.0736 and 92.8885
- HDAC1 relative activity ([3]; sheet S2d, log conc -3.30103): 2.253 and 2.122 and 2.222
- HDAC1 relative activity ([3]; sheet S2d, log conc -3.82945): 6.603 and 6.6 and 6.7561
- HDAC1 relative activity ([3]; sheet S2d, log conc -4.35788): 20.3513 and 20.4988 and 20.2352
- HDAC1 relative activity ([3]; sheet S2d, log conc -4.88629): 44.8545 and 45.009 and 46.4019
- HDAC1 relative activity ([3]; sheet S2d, log conc -5.41477): 75.7737 and 78.1543 and 78.9575
- HDAC1 relative activity ([3]; sheet S2d, log conc -5.94309): 89.586 and 92.205 and 92.7553
- HDAC1 relative activity ([3]; sheet S2d, log conc -6.47756): 95.6344 and 96.1277 and 99.0353
- HDAC1 relative activity ([3]; sheet S2d, log conc -6.87615): 97.1294 and 100.284 and 101.314

Structure (SMILES): NC(=O)CCCCC1CCSS1 (racemic) [(R/S)-LM, (R/S)-lipoamide]
- EC50 [1]: 15.6 µM
- HDCA3 relative activity ([1]; log conc -3.30103): 69.6623 and 70.4079 and 69.1097
- HDCA3 relative activity ([1]; log conc -3.82945): 75.2589 and 76.6842 and 75.5671
- HDCA3 relative activity ([1]; log conc -4.35788): 87.3214 and 88.0897 and 87.877
- HDCA3 relative activity ([1]; log conc -4.88629): 91.0887 and 91.1636 and 92.3406
- HDCA3 relative activity ([1]; log conc -5.41477): 88.6242 and 91.0601 and 91.2237
- HDCA3 relative activity ([1]; log conc -5.94309): 95.2751 and 94.3928 and 97.2335
- HDCA3 relative activity ([1]; log conc -6.47756): 90.1183 and 90.3135 and 93.1985
- HDCA3 relative activity ([1]; log conc -6.87615): 107.529 and 106.868 and 106.288
- DDX3X AcK118 acetylation level relative to control ([2]; 1 mM): 2.4 fold
- DDX3X AcK118 acetylation level relative to control ([2]; .5 (mM)): 2.1 fold
- raw luminescence signal, HDAC1 inhibition [3, 4]: 5424 and 5479 and 5403
- raw luminescence signal, HDAC1 inhibition [3, 5]: 13727 and 13267 and 13133
- raw luminescence signal, HDAC1 inhibition [3, 6]: 41841 and 41621 and 40313
- raw luminescence signal, HDAC1 inhibition [3, 7]: 92316 and 92590 and 94920
- raw luminescence signal, HDAC1 inhibition [3, 8]: 199427 and 199193 and 204666
- raw luminescence signal, HDAC1 inhibition [3, 9]: 291058 and 290664 and 291270
- raw luminescence signal, HDAC1 inhibition [3, 10]: 353511 and 347886 and 348635
- raw luminescence signal, HDAC1 inhibition [3, 11]: 348604 and 343316 and 346349
- EC50 [3]: 4.62 µM
- HDAC1 relative activity ([3]; sheet S2b, log conc -3.30103): 71.5662 and 71.4067 and 71.4672
- HDAC1 relative activity ([3]; sheet S2b, log conc -3.82945): 85.3568 and 84.4089 and 84.9362
- HDAC1 relative activity ([3]; sheet S2b, log conc -4.35788): 99.571 and 98.7787 and 97.4651
- HDAC1 relative activity ([3]; sheet S2b, log conc -4.88629): 94.8867 and 95.3188 and 94.2715
- HDAC1 relative activity ([3]; sheet S2b, log conc -5.41477): 102.996 and 104.783 and 104.694
- HDAC1 relative activity ([3]; sheet S2b, log conc -5.94309): 100.727 and 101.673 and 102.371
- HDAC1 relative activity ([3]; sheet S2b, log conc -6.47756): 104.216 and 103.707 and 104.551
- HDAC1 relative activity ([3]; sheet S2b, log conc -6.87615): 97.8849 and 97.6343 and 99.4595
